Measured values reported in ChEMBL document CHEMBL4825673, “Total and Semisyntheses of Polymyxin Analogues with 2-Thr or 10-Thr Modifications to Decipher the Structure-Activity Relationship and Improve the Antibacterial Activity” (J Med Chem, 2021).
Values after ≈ are worked out from the molar mass of the structure shown. Positions of bridges follow the written chain, without caps; N, C: chain ends. Non-standard residues stand in square brackets, D forms with d. Residues, ends and D or L forms follow the SMILES beside them. *: point of attachment. Octanoyl = CCCCCCCC(=O)*; Dab = NCC[C@H](N)C(=O)O

Assays:
Format in all cases: functional
Conditions in all cases: read-out: MIC100
[1] = tested on: Acinetobacter baumannii; assay: Antibacterial activity against Acinetobacter baumannii assessed as inhibition of bacterial growth incubated for 24 hrs by broth microdilution method
[2] = tested on: Moraxella catarrhalis; assay: Antibacterial activity against Moraxella catarrhalis assessed as inhibition of bacterial growth incubated for 24 hrs by broth microdilution method
[3] = tested on: Pseudomonas aeruginosa; assay: Antibacterial activity against Pseudomonas aeruginosa assessed as inhibition of bacterial growth incubated for 24 hrs by broth microdilution method
[4] = tested on: Escherichia coli; assay: Antibacterial activity against Escherichia coli assessed as inhibition of bacterial growth incubated for 24 hrs by broth microdilution method
[5] = tested on: Pseudomonas aeruginosa; assay: Antibacterial activity against Pseudomonas aeruginosa PAO1 assessed as inhibition of bacterial growth incubated for 24 hrs by broth microdilution method
[6] = tested on: Klebsiella pneumoniae; assay: Antibacterial activity against Klebsiella pneumoniae assessed as inhibition of bacterial growth incubated for 24 hrs by broth microdilution method

MIC [1] [µg/mL]	MIC [2] [µg/mL]	MIC [3] [µg/mL]	MIC [4] [µg/mL]	MIC [5] [µg/mL]	MIC [6] [µg/mL]	Structure (SMILES)
0.06 (≈ 0.0461 µM)	> 16	0.125 (≈ 0.096 µM)	0.25 (≈ 0.192 µM)	4 (≈ 3.07 µM)	1 (≈ 0.768 µM)	CC(C)CCCCC(=O)N[C@@H](CCN)C(=O)N[C@H](C(=O)N[C@@H](CCN)C(=O)N[C@H]1CCNC(=O)[C@H]([C@@H](C)O)NC(=O)[C@H](CCN)NC(=O)[C@H](CCN)NC(=O)[C@H](CC(C)C)NC(=O)[C@@H](Cc2ccccc2)NC(=O)[C@H](CCN)NC1=O)[C@@H](C)OC(=O)[C@@H](N)CC(C)C
0.06 (≈ 0.0481 µM)	> 16	0.25 (≈ 0.201 µM)	0.25 (≈ 0.201 µM)	2 (≈ 1.6 µM)	1 (≈ 0.802 µM)	CC(C)CCCCC(=O)N[C@@H](CCN)C(=O)N[C@H](C(=O)N[C@@H](CCN)C(=O)N[C@H]1CCNC(=O)[C@H]([C@@H](C)O)NC(=O)[C@H](CCN)NC(=O)[C@H](CCN)NC(=O)[C@H](CC(C)C)NC(=O)[C@@H](Cc2ccccc2)NC(=O)[C@H](CCN)NC1=O)[C@@H](C)OC(=O)CN
0.125 (≈ 0.0992 µM)	> 64	0.125 (≈ 0.0992 µM)	0.25 (≈ 0.198 µM)	4 (≈ 3.17 µM)	0.5 (≈ 0.397 µM)	CC[C@H](C)CCCCC(=O)N[C@@H](CCN)C(=O)N[C@H](C(=O)N[C@@H](CCN)C(=O)N[C@H]1CCNC(=O)[C@H]([C@@H](C)O)NC(=O)[C@H](CCN)NC(=O)[C@H](CCN)NC(=O)[C@H](CC(C)C)NC(=O)[C@@H](Cc2ccccc2)NC(=O)[C@H](CCN)NC1=O)[C@@H](C)OC(=O)CN
0.25 (≈ 0.187 µM)	> 32	0.25 (≈ 0.187 µM)	0.5 (≈ 0.374 µM)	4 (≈ 2.99 µM)	0.5 (≈ 0.374 µM)	CC(C)CCCCC(=O)N[C@@H](CCN)C(=O)N[C@H](C(=O)N[C@@H](CCN)C(=O)N[C@H]1CCNC(=O)[C@H]([C@@H](C)O)NC(=O)[C@H](CCN)NC(=O)[C@H](CCN)NC(=O)[C@H](CC(C)C)NC(=O)[C@@H](Cc2ccccc2)NC(=O)[C@H](CCN)NC1=O)[C@@H](C)OC(=O)[C@@H](N)Cc1ccccc1

The remaining lines, values behind:

Structure (SMILES)	MIC [1] [µg/mL]	MIC [2] [µg/mL]	MIC [3] [µg/mL]	MIC [4] [µg/mL]	MIC [5] [µg/mL]	MIC [6] [µg/mL]
CC(C)CCCCC(=O)N[C@@H](CCN)C(=O)N[C@H](C(=O)N[C@@H](CCN)C(=O)N[C@H]1CCNC(=O)[C@H]([C@@H](C)O)NC(=O)[C@H](CCN)NC(=O)[C@H](CCN)NC(=O)[C@H](CC(C)C)NC(=O)[C@@H](Cc2ccccc2)NC(=O)[C@H](CCN)NC1=O)[C@@H](C)OC(=O)[C@@H](N)Cc1c[nH]cn1	0.125 (≈ 0.0942 µM)	8 (≈ 6.03 µM)	0.5 (≈ 0.377 µM)	0.5 (≈ 0.377 µM)	2 (≈ 1.51 µM)	4 (≈ 3.02 µM)
CC[C@H](C)CCCCC(=O)N[C@@H](CCN)C(=O)N[C@H](C(=O)N[C@@H](CCN)C(=O)N[C@H]1CCNC(=O)[C@H]([C@@H](C)O)NC(=O)[C@H](CCN)NC(=O)[C@H](CCN)NC(=O)[C@H](CC(C)C)NC(=O)[C@@H](Cc2ccccc2)NC(=O)[C@H](CCN)NC1=O)[C@@H](C)OC(=O)[C@@H](N)CCC(N)=O	0.06 (≈ 0.0451 µM)	> 32	0.125 (≈ 0.0939 µM)	0.25 (≈ 0.188 µM)	2 (≈ 1.5 µM)	2 (≈ 1.5 µM)
CCCCCCCC(=O)N[C@@H](CCN)C(=O)N[C@H](C(=O)N[C@@H](CCN)C(=O)N[C@H]1CCNC(=O)[C@H](CC(C)C)NC(=O)[C@H](CCN)NC(=O)[C@H](CCN)NC(=O)[C@H](CC(C)C)NC(=O)[C@@H](Cc2ccccc2)NC(=O)[C@H](CCN)NC1=O)[C@@H](C)O (Octanoyl-[Dab]T[Dab][Dab][Dab][dF]L[Dab][Dab]L; lactam 4-C)	2 (≈ 1.66 µM)	2 (≈ 1.66 µM)	0.25 (≈ 0.208 µM)	4 (≈ 3.33 µM)	4 (≈ 3.33 µM)	2 (≈ 1.66 µM)
CCCCCCCC(=O)N[C@@H](CCN)C(=O)N[C@@H](CCSC)C(=O)N[C@@H](CCN)C(=O)N[C@H]1CCNC(=O)[C@H]([C@@H](C)O)NC(=O)[C@H](CCN)NC(=O)[C@H](CCN)NC(=O)[C@H](CC(C)C)NC(=O)[C@@H](Cc2ccccc2)NC(=O)[C@H](CCN)NC1=O	2 (≈ 1.64 µM)	8 (≈ 6.56 µM)	0.125 (≈ 0.102 µM)	4 (≈ 3.28 µM)	2 (≈ 1.64 µM)	> 64
CC(C)CCCCC(=O)N[C@@H](CCN)C(=O)N[C@H](C(=O)N[C@@H](CCN)C(=O)N[C@H]1CCNC(=O)[C@H]([C@@H](C)O)NC(=O)[C@H](CCN)NC(=O)[C@H](CCN)NC(=O)[C@H](CC(C)C)NC(=O)[C@@H](Cc2ccccc2)NC(=O)[C@H](CCN)NC1=O)[C@@H](C)OC(=O)[C@@H](N)CCCCN	0.125 (≈ 0.0949 µM)	> 64	0.25 (≈ 0.19 µM)	0.5 (≈ 0.379 µM)	2 (≈ 1.52 µM)	4 (≈ 3.04 µM)
CC(C)CCCCC(=O)N[C@@H](CCN)C(=O)N[C@H](C(=O)N[C@@H](CCN)C(=O)N[C@H]1CCNC(=O)[C@H]([C@@H](C)O)NC(=O)[C@H](CCN)NC(=O)[C@H](CCN)NC(=O)[C@H](CC(C)C)NC(=O)[C@@H](Cc2ccccc2)NC(=O)[C@H](CCN)NC1=O)[C@@H](C)OC(=O)[C@H](C)N	0.125 (≈ 0.0992 µM)	> 32	0.25 (≈ 0.198 µM)	0.25 (≈ 0.198 µM)	1 (≈ 0.793 µM)	2 (≈ 1.59 µM)
